These results are taken from US20040209775A1, “Herbicidal composition” (priority 2001, published 2004).

Holding throughout (test): Post-emergence test, greenhouse
Assay type in all cases: in vivo

One assay deals with Galium aparine. To be noted: evaluation 20 days after application. An excerpt:
(§1) The herbicidal action to be expected We for a given combination of two herbicides can be calculated as follows (see COLBY, S. R., “Calculating synergistic and antagonistic response of herbicide combinations”, Weeds 15, pages 20-22, 1967):
(§2) Post-emergence application of mixtures of a herbicide of formula I wherein R is CH3; R1 is 4-fluorine; R2 is 3-acetonitrile; and R3 and R4 are hydrogen (=herbicide no. 11) with the co-herbicide dicamba at 500 g/ha and 30 g/ha, respectively, in Table B1, and of a herbicide of formula I wherein R is CH3; R1 is 4-fluorine; R2 is 3-acetonitrile; and R3 and R4 are hydrogen (=herbicide no. I1) with the co-herbicide triasulfuron at 250 g/ha and 3.75 g.ha, respectively, in Table B2.
(§3) The test plants are grown to the 2- to 3-leaf stage in plastics pots under greenhouse conditions. A standard soil is used as cultivation substrate. At the 2- to 3-leaf stage, the herbicides are applied to the test plants on their own and as a mixture. The application is carried out using an aqueous suspension of the test compounds in 500 litres of water/ha. The rates of application depend on the optimum doses ascertained under field conditions and greenhouse conditions. […]

The subject of the next assay is Matricaria chamomilla. The conditions noted are these: I1 250, triasulfuron 3.5, mixture 250 + 3.75 g a.i./ha, evaluation 20 days after application.
From the text: as §1, §2, §3

For another assay, the system named is Capsella bursa-pastoris. The conditions noted are these: I1 250, triasulfuron 3.5, mixture 250 + 3.75 g a.i./ha, evaluation 20 days after application.
From the text: as §1, §2, §3

For a further assay, the system named is winter wheat.
From the text: as §1, §2, §3

For the next assay, the system named is hard wheat. To be noted: I1 250, triasulfuron 3.5, mixture 250 + 3.75 g a.i./ha, evaluation 10 days after application.
From the text: as §1, §2, §3

In a further assay the test system is Polygonum convolvulus. To be noted: I1 250, triasulfuron 3.5, mixture 250 + 3.75 g a.i./ha, evaluation 20 days after application.
From the text: as §1, §2, §3

The next assay relates to Kochia scoparia. The conditions noted are these: I1 250, triasulfuron 3.5, mixture 250 + 3.75 g a.i./ha, evaluation 20 days after application.
From the text: as §1, §2, §3

For a further assay, the system named is Lamium purpureum. The conditions noted are these: I1 250, triasulfuron 3.5, mixture 250 + 3.75 g a.i./ha, evaluation 20 days after application.
From the text: as §1, §2, §3

The next assay concerns Viola tricolor. To be noted: I1 500, dicamba 30, mixture 500 + 30 g a.i./ha, evaluation 20 days after application. As to the method:
(§4) The herbicidal action to be expected We for a given combination of two herbicides can be calculated as follows (see COLBY, S. R., “Calculating synergistic and antagonistic response of herbicide combinations”, Weeds 15, pages 20-22, 1967): […] Post-emergence application of mixtures of a herbicide of formula I wherein R is CH3; […] R2 is 3-acetonitrile; and R3 and R4 are hydrogen (=herbicide no. […] The test plants are grown to the 2- to 3-leaf stage in plastics pots under greenhouse conditions. A standard soil is used as cultivation substrate. At the 2- to 3-leaf stage, the herbicides are applied to the test plants on their own and as a mixture. The application is carried out using an aqueous suspension of the test compounds in 500 litres of water/ha. The rates of application depend on the optimum doses ascertained under field conditions and greenhouse conditions.

The subject of a further assay is winter barley. To be noted: I1 500, dicamba 30, mixture 500 + 30 g a.i./ha, evaluation 20 days after application. As to the method:
as §4

A further assay concerns Raphnus raphanistrum. The conditions noted are these: I1 500, dicamba 30, mixture 500 + 30 g a.i./ha, evaluation 20 days after application. As for the experimental part:
as §4

The next assay has as its system Veronica persica. To be noted: I1 500, dicamba 30, mixture 500 + 30 g a.i./ha, evaluation 20 days after application. As for the experimental part:
as §4

In another assay the test system is Stellaria media. The conditions noted are these: I1 500, dicamba 30, mixture 500 + 30 g a.i./ha, evaluation 20 days after application. As to the method:
as §4

For `COc1nc(C)nc(NC(=O)NS(=O)(=O)c2ccccc2OCCCl)n1` [triasulfuron], the “% action, Gal. apar.” value with Galium aparine (I1 250, triasulfuron 3.5, mixture 250 + 3.75 g a.i./ha) is 70%. The “% action, Matr. cham.” value in the assay with Matricaria chamomilla worked out at 95%. Moreover, in the assay on Capsella bursa-pastoris, the “% action, Caps. bursa-past.” value is 98%. The “% action, W. wheat” value in the assay on winter wheat (I1 250, triasulfuron 3.5, mixture 250 + 3.75 g a.i./ha, evaluation 10 days after application) turned out to be 0%. Besides, the “% action, H. wheat” value in the assay on hard wheat is reported as 0%. Moreover, in the assay with Polygonum convolvulus, the “% action, Polyg. conv.” value is given as 80%. Moreover, the “% action, Kochia scop.” value with Kochia scoparia is on record as 95%. The “% action, Lamium purpur.” value in the assay with Lamium purpureum is listed as 90%.

`COc1c(Cl)ccc(Cl)c1C(=O)O` [dicamba]: the “% action, Viola tric.” value in the assay with Viola tricolor amounted to 0%. Moreover, in the assay with winter barley, the “% action, Barley” value was 10%. Also, the “% action, Raphnus raphan.” value in the assay with Raphnus raphanistrum is listed as 20%. For the same compound, the “% action, Veronica persica” value in the assay with Veronica persica came to 20%. In the assay with Stellaria media, the “% action, Stellaria media” value is reported as 20%. In the assay with Galium aparine (I1 500, dicamba 30, mixture 500 + 30 g a.i./ha), the “% action, Galium aparine” value is 40%. For the same compound, in the assay on winter wheat (I1 500, dicamba 30, mixture 500 + 30 g a.i./ha, evaluation 20 days after application, 100%=plant has died), the “% action, Wheat” value worked out at 0%.
